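Briefly, cells in 96-well plates were exposed to five compound concentrations for 48 h, and endpoints were estimated by linear interpolation. The concentration for 50% growth inhibition is given as GI50.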 Active and inactive are the calls of the source. No stated cut-off is given here; in the data, active = GI50 up to about 1.1 µM and inactive = higher.
Key:
Assay in all cases: NCI tumour cell line growth inhibition, 48 h
A549 = test system: A549
SK-MEL-2 = test system: SK-MEL-2
MOLT-4 = test system: MOLT-4
NCI-H522 = test system: NCI-H522
HT-29 = test system: HT-29
SK-MEL-28 = test system: SK-MEL-28
SF-539 = test system: SF-539
PC-3 = test system: PC-3
UACC-62 = test system: UACC-62
SNB-75 = test system: SNB-75
SK-OV-3 = test system: SK-OV-3
CAKI-1 = test system: CAKI-1
Hs-578T = test system: Hs-578T
SNB-19 = test system: SNB-19
786-0 = test system: 786-0
TK-10 = test system: TK-10
OVCAR-5 = test system: OVCAR-5
HCT-116 = test system: HCT-116
U-251 = test system: U-251
MDA-MB-435 = test system: MDA-MB-435
SW-620 = test system: SW-620
SK-MEL-5 = test system: SK-MEL-5
NCI/ADR-RES = test system: NCI/ADR-RES
OVCAR-8 = test system: OVCAR-8
OVCAR-3 = test system: OVCAR-3
SR = test system: SR
IGROV-1 = test system: IGROV-1
SF-295 = test system: SF-295
ACHN = test system: ACHN
LOX IMVI = test system: LOX IMVI
BT-549 = test system: BT-549
M14 = test system: M14
OVCAR-4 = test system: OVCAR-4
UO-31 = test system: UO-31
CCRF-CEM = test system: CCRF-CEM
HOP-62 = test system: HOP-62
HCC 2998 = test system: HCC 2998
K562 = test system: K562
MDA-MB-231 = test system: MDA-MB-231
NCI-H460 = test system: NCI-H460
MCF7 = test system: MCF7
COLO 205 = test system: COLO 205
HCT-15 = test system: HCT-15
UACC-257 = test system: UACC-257
Malme-3M = test system: Malme-3M
T47D = test system: T47D
KM12 = test system: KM12
RPMI-8226 = test system: RPMI-8226
RXF 393 = test system: RXF 393
EKVX = test system: EKVX
NCI-H226 = test system: NCI-H226
SN12C = test system: SN12C
NCI-H23 = test system: NCI-H23
SF-268 = test system: SF-268
MDA-N = test system: MDA-N

## N=c1c2ccccc2nc2oc3cc([N+](=O)[O-])ccc3n12
A549
  GI50: 40.1 µM (inactive)
SK-MEL-2
  GI50: 94.2 µM (inactive)
MOLT-4
  GI50: > 100 µM (inactive)
NCI-H522
  GI50: 32.2 µM (inactive)
HT-29
  GI50: > 100 µM (inactive)
SK-MEL-28
  GI50: 74 µM (inactive)
SF-539
  GI50: 22.3 µM (inactive)
PC-3
  GI50: 54.2 µM (inactive)
UACC-62
  GI50: 47.3 µM (inactive)
SNB-75
  GI50: 5.61 µM (inactive)
SK-OV-3
  GI50: 17.9 µM (inactive)
CAKI-1
  GI50: 25.4 µM (inactive)
Hs-578T
  GI50: 4.23 µM (inactive)
SNB-19
  GI50: 24.9 µM (inactive)
786-0
  GI50: 24.7 µM (inactive)
TK-10
  GI50: 19.6 µM (inactive)
OVCAR-5
  GI50: 28.2 µM (inactive)
HCT-116
  GI50: 25.6 µM (inactive)
U-251
  GI50: 15.5 µM (inactive)
MDA-MB-435
  GI50: > 100 µM (inactive)
SW-620
  GI50: 61.1 µM (inactive)
SK-MEL-5
  GI50: 71.6 µM (inactive)
NCI/ADR-RES
  GI50: 18.6 µM (inactive)
OVCAR-8
  GI50: 20.9 µM (inactive)
OVCAR-3
  GI50: 25.7 µM (inactive)
SR
  GI50: > 100 µM (inactive)
IGROV-1
  GI50: 27.4 µM (inactive)
SF-295
  GI50: 19.3 µM (inactive)
ACHN
  GI50: 23.7 µM (inactive)
LOX IMVI
  GI50: 21 µM (inactive)
BT-549
  GI50: 20.2 µM (inactive)
M14
  GI50: > 100 µM (inactive)
OVCAR-4
  GI50: 21.3 µM (inactive)
UO-31
  GI50: 16.6 µM (inactive)
CCRF-CEM
  GI50: > 100 µM (inactive)
HOP-62
  GI50: 18.1 µM (inactive)
HCC 2998
  GI50: > 100 µM (inactive)
K562
  GI50: > 100 µM (inactive)
MDA-MB-231
  GI50: 25.1 µM (inactive)
NCI-H460
  GI50: 36.9 µM (inactive)
MCF7
  GI50: > 100 µM (inactive)
COLO 205
  GI50: > 100 µM (inactive)
HCT-15
  GI50: > 100 µM
UACC-257
  GI50: > 100 µM (inactive)
Malme-3M
  GI50: 25.9 µM (inactive)
T47D
  GI50: < 0.01 µM (active)
KM12
  GI50: > 100 µM (inactive)
RPMI-8226
  GI50: > 100 µM (inactive)
RXF 393
  GI50: 7.38 µM (inactive)
EKVX
  GI50: 2.21 µM (inactive)
NCI-H226
  GI50: 15 µM (inactive)
SN12C
  GI50: 35.6 µM (inactive)
NCI-H23
  GI50: 16.6 µM (inactive)
SF-268
  GI50: 27.4 µM (inactive)
MDA-N
  GI50: > 100 µM (inactive)

From ChEMBL document CHEMBL1201862, “PubChem BioAssay data set” (2004)
